The values below come from patent US10501421B1, “Substituted benzimidazoles as modulators of Ras signaling” (VANDERBILT UNIVERSITY, priority 2017, dated 2019).

Where a name gives a salt, the structure may show the parent alone. Bounds are passed on as bounds.

Test [1] addresses Ras GEF SOS (Son of Sevenless) (Homo sapiens, UniProt Q07889). As to the kind of experiment: SOS-mediated nucleotide exchange on Ras (BODIPY-GDP fluorescence). Type of test: biochemical. The settings on record: SOS-mediated exchange of BODIPY-GDP for GTP on Ras. Put shortly:
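Exchange rates were taken from single-exponential fits of the fluorescence time course as BODIPY-GDP on Ras was replaced by GTP. Compound went in first, then GTP and SOS. Mean rates plotted against concentration gave EC50 by four-parameter dose-response fitting.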

In another test the target is T1, Son of Sevenless (SOS) (Homo sapiens, UniProt Q07889).
T1 sequence (Q07889 564-1049 limits assumed): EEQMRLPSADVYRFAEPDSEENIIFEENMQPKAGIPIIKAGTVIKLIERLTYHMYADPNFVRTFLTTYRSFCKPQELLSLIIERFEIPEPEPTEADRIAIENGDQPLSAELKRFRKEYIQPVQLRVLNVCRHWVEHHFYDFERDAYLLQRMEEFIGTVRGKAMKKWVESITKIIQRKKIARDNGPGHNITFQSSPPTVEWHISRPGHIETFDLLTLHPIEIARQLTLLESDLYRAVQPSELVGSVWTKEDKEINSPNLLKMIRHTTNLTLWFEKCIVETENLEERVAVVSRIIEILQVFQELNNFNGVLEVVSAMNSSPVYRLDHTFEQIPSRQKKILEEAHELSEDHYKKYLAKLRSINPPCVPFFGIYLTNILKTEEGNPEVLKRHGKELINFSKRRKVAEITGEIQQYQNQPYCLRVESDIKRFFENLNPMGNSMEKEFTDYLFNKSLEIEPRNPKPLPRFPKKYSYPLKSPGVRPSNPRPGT
As to the kind of experiment: Binding to SOS, fluorescence polarization anisotropy (FPA) probe displacement. Particulars: displacement of FITC-conjugated probe (Example 285), affinity calculated from IC50. Put shortly: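 Test compounds were titrated against SOS pre-bound to a fluorescein-labelled probe, with anisotropy plotted versus compound concentration. Binding affinities were derived from IC50 values obtained by four-parameter dose-response fitting.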

Sequence of Ras GEF SOS (Son of Sevenless) (P01112 1-166 partner limits assumed, one chain of several): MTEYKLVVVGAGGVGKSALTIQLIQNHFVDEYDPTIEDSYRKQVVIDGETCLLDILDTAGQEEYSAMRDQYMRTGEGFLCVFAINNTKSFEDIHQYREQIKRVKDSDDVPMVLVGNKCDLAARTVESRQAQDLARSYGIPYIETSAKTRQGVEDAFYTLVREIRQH

A word on the EC50: it is the concentration needed to bring the measured effect to its halfway point. Higher therefore signals weaker potency. What is called Ki is the equilibrium dissociation constant of an inhibitor or competing ligand from its target. Turning to `Cc1cc(N(C)CCN(C)C)c2nc(N3CCNCC3)n(Cc3cc(C)c(F)c(C)c3)c2c1` [Example 191, N^1-(1-(4-fluoro-3,5-dimethylbenzyl)-6-methyl-2-(piperazin-1-yl)-1H-benzo[d]imidazol-4-yl)-N^1,N^2,N^2-trimethylethane-1,2-diamine trifluoroacetate], the EC50 in test [1] lay within 1 to 5 µM. Further, the Ki on Son of Sevenless (SOS) was 0.5 to 1 µM.
Compound `Cc1cc(OCCN)c2nc(NCCN)n(Cc3cc(C)c(F)c(C)c3)c2c1` [Example 320, N^1-(4-(2-aminoethoxy)-1-(4-fluoro-3,5-dimethylbenzyl)-6-methyl-1H-benzo[d]imidazol-2-yl)ethane-1,2-diamine] gave an EC50 in test [1] of less than 1 µM. Moreover, on Son of Sevenless (SOS), the Ki was 0.5 to 1 µM.
Turning to `Cc1cc2nc(N3CCNCC3)n(Cc3cc(C)c(F)c(C)c3)c2cc1C` [Example 41, 1-(4-fluoro-3,5-dimethylbenzyl)-5,6-dimethyl-2-(piperazin-1-yl)-1H-benzo[d]imidazole trifluoroacetate], the EC50 in test [1] was in the range of 1 to 5 µM. At Son of Sevenless (SOS), the inhibition constant (Ki) was more than 5 µM.
On to `Cc1cc(-c2ccccc2C)c2ncn(Cc3cc(C)c(F)c(C)c3)c2c1` [Example 142, 1-(4-fluoro-3,5-dimethylbenzyl)-6-methyl-4-(o-tolyl)-1H-benzo[d]imidazole], for which the EC50 in test [1] lay within 30 to 100 µM. Further, the Ki on Son of Sevenless (SOS) was more than 5 µM.
In test [1], `Cc1cc2c(nc(N3CCNCC3)n2Cc2ccc(F)c(Cl)c2)c(-c2ccnn2-c2ccc(C(C)C)cc2)c1C` [Example 173, 1-(3-chloro-4-fluorobenzyl)-4-(1-(4-isopropylphenyl)-1H-pyrazol-5-yl)-5,6-dimethyl-2-(piperazin-1-yl)-1H-benzo[d]imidazole trifluoroacetate] returned an EC50 of 5 to 30 µM. The Ki on Son of Sevenless (SOS) is more than 5 µM.
Regarding `Cc1cc(N2CCNCC2)c2nc(N3CCNCC3)n(Cc3cc(C)c(F)c(C)c3)c2c1` [Example 190, 1-(4-fluoro-3,5-dimethylbenzyl)-6-methyl-2,4-di(piperazin-1-yl)-1H-benzo[d]imidazole trifluoroacetate], the EC50 in test [1] is less than 1 µM. Also, the Ki at Son of Sevenless (SOS) is 0.5 to 1 µM.
The compound `Cc1cc(Cn2c(N3CCNCC3)nc3c(C4=CCNCC4)cc(Cl)cc32)cc(C)c1F` [Example 304, 6-chloro-1-(4-fluoro-3,5-dimethylbenzyl)-2-(piperazin-1-yl)-4-(1,2,3,6-tetrahydropyridin-4-yl)-1H-benzo[d]imidazole] gave a half-maximal effective concentration (EC50) in test [1] of less than 1 µM. The Ki on Son of Sevenless (SOS) was less than 0.5 µM.
In turn, `Fc1ccc(Cn2c(N3CCNCC3)nc3ccccc32)cc1Cl` [Example 7, 1-(3-chloro-4-fluorobenzyl)-2-(piperazin-1-yl)-1H-benzo[d]imidazole trifluoroacetate] had a 50% effective concentration (EC50) in test [1] of 5 to 30 µM. Also, the Ki at Son of Sevenless (SOS) was more than 5 µM.
In test [1], `Cc1cc(Cn2c(N3CCNCC3)nc3c(-c4ccccc4C#Cc4ccccc4Cl)cc(Cl)cc32)cc(C)c1F` [Example 183, 6-chloro-4-(2-((2-chlorophenyl)ethynyl)phenyl)-1-(4-fluoro-3,5-dimethylbenzyl)-2-(piperazin-1-yl)-1H-benzo[d]imidazole trifluoroacetate] displayed an EC50 of 1 to 5 µM. Also, on Son of Sevenless (SOS), the Ki is 0.5 to 1 µM.
On to `Fc1ccc(Cn2c(N3CCNCC3)nc3c(-c4cccnc4OCc4ccccc4)cccc32)cc1Cl` [Example 266, 1-[(3-chloro-4-fluorophenyl)methyl]-4-(2-phenylmethoxypyridin-3-yl)-2-piperazin-1-ylbenzimidazole], for which, in test [1], the EC50 was in the range of 5 to 30 µM. At Son of Sevenless (SOS), the Ki is more than 5 µM.
`Cc1cc(Cn2c(N3CCNCC3)nc3c(OCCN(C)C)cccc32)ccc1F` [Example 210, 2-((1-(4-fluoro-3-methylbenzyl)-2-(piperazin-1-yl)-1H-benzo[d]imidazol-4-yl)oxy)-N,N-dimethylethan-1-amine] displayed a concentration for a half-maximal effect (EC50) in test [1] of less than 1 µM. On Son of Sevenless (SOS), the Ki was more than 5 µM.
The corresponding values for `Cc1cc(Cn2c(N3CCNCC3)nc3c(N4CCC(N)CC4)cc(Cl)cc32)cc(C)c1F` [Example 319, 1-(6-chloro-1-(4-fluoro-3,5-dimethylbenzyl)-2-(piperazin-1-yl)-1H-benzo[d]imidazol-4-yl)piperidin-4-amine] are less than 1 µM and less than 0.5 µM.
The corresponding values for `C=C[C@@H](N)c1cc(C)cc2c1nc(N1CCNCC1)n2Cc1cc(C)c(F)c(C)c1` [Example 163, (R)-1-(1-(4-fluoro-3,5-dimethylbenzyl)-6-methyl-2-(piperazin-1-yl)-1H-benzo[d]imidazol-4-yl)prop-2-en-1-amine trifluoroacetate] are 1 to 5 µM and 0.5 to 1 µM.
`Cc1ccc2nc(N3CCNCC3)n(Cc3cc(C)c(F)c(C)c3)c2c1` [Example 323, 1-(4-fluoro-3,5-dimethylbenzyl)-6-methyl-2-(piperazin-1-yl)-1H-benzo[d]imidazole] yielded an EC50 in test [1] of less than 1 µM. The Ki at Son of Sevenless (SOS) is 1 to 5 µM.
In test [1], `CNCCN(C)c1cc(C)cc2c1nc(N1CCNCC1)n2Cc1cc(C)c(F)c(C)c1` [Example 192, N^1-(1-(4-fluoro-3,5-dimethylbenzyl)-6-methyl-2-(piperazin-1-yl)-1H-benzo[d]imidazol-4-yl)-N^1,N^2-dimethylethane-1,2-diamine trifluoroacetate] displayed an EC50 of 1 to 5 µM. Also, the Ki at Son of Sevenless (SOS) was 0.5 to 1 µM.
On to `Cc1cc2nc(N3CCNCC3)n(Cc3cc(Cl)c(F)c(Cl)c3)c2cc1C` [Example 277, 1-[(3,5-dichloro-4-fluorophenyl)methyl]-5,6-dimethyl-2-piperazin-1-ylbenzimidazole], for which the EC50 in test [1] is 1 to 5 µM. For the same compound, the inhibition constant (Ki) on Son of Sevenless (SOS) is more than 5 µM.
For `Cc1cc2nc(N3CCNCC3)n(Cc3cc(F)cc(F)c3)c2cc1C` [Example 18, 1-(3,5-difluorobenzyl)-5,6-dimethyl-2-(piperazin-1-yl)-1H-benzo[d]imidazole trifluoroacetate] the same measures were 5 to 30 µM and more than 5 µM.
`CCCN1CC[C@@H](C(=O)c2ccccc2)C1c1cc(Cl)cc2c1nc(N1CCNCC1)n2Cc1ccc(F)c(Cl)c1` (stereo in doubt) [Example 154, ((2S,3R)-2-(6-chloro-1-(3-chloro-4-fluorobenzyl)-2-(piperazin-1-yl)-1H-benzo[d]imidazol-4-yl)-1-propylpyrrolidin-3-yl)(phenyl)methanone trifluoroacetate]: the EC50 in test [1] fell in the range of 1 to 5 µM. For the same compound, the Ki at Son of Sevenless (SOS) is 1 to 5 µM.
In turn, `CN(CCCO)Cc1cc(Cl)cc2c1nc(N1CCNCC1)n2Cc1ccc(F)c(Cl)c1` [Example 135, 3-(((6-chloro-1-(3-chloro-4-fluorobenzyl)-2-(piperazin-1-yl)-1H-benzo[d]imidazol-4-yl)methyl)(methyl)amino)propan-1-ol trifluoroacetate] had an EC50 in test [1] of less than 1 µM. Also, the Ki at Son of Sevenless (SOS) is 1 to 5 µM.
With `Cc1cc(Cn2c(NCCN)nc3c(C4=CCNCC4)cc(Cl)cc32)cc(C)c1F` [Example 303, N^1-(6-chloro-1-(4-fluoro-3,5-dimethylbenzyl)-4-(1,2,3,6-tetrahydropyridin-4-yl)-1H-benzo[d]imidazol-2-yl)ethane-1,2-diamine], in test [1], the concentration for a half-maximal effect (EC50) was less than 1 µM. In addition, the inhibitory constant (Ki) at Son of Sevenless (SOS) was less than 0.5 µM.
In turn, `COc1ccc(-c2nc(C)cc3c2nc(N2CCNCC2)n3Cc2ccc(F)c(C)c2)cc1OC` [Example 230, 4-(3,4-dimethoxyphenyl)-1-(4-fluoro-3-methylbenzyl)-6-methyl-2-(piperazin-1-yl)-1H-imidazo[4,5-c]pyridine] came in with an EC50 in test [1] of 5 to 30 µM. Further, on Son of Sevenless (SOS), the Ki is more than 5 µM.
Compound `Cc1cc(Cn2c(NCCN)nc3c([C@@H](N)c4ccccc4)cc(Cl)cc32)cc(C)c1F` [Example 160, (S)—N^1-(4-(amino(phenyl)methyl)-6-chloro-1-(4-fluoro-3,5-dimethylbenzyl)-1H-benzo[d]imidazol-2-yl)ethane-1,2-diamine trifluoroacetate] had a 50% effective concentration (EC50) in test [1] of 1 to 5 µM. For the same compound, on Son of Sevenless (SOS), the Ki was less than 0.5 µM.
In test [1], `Cc1cc(N2CCC(CN)C2)c2nc(N3CCNCC3)n(Cc3cc(C)c(F)c(C)c3)c2c1` (stereo not shown) [Example 189, (1-(1-(4-fluoro-3,5-dimethylbenzyl)-6-methyl-2-(piperazin-1-yl)-1H-benzo[d]imidazol-4-yl)pyrrolidin-3-yl)methanamine trifluoroacetate] came in with an EC50 of 1 to 5 µM. Moreover, the Ki on Son of Sevenless (SOS) was 0.5 to 1 µM.
In turn, `Cc1cc2nc(NCCO)n(Cc3ccc(F)c(Cl)c3)c2cc1C` [Example 26, 2-((1-(3-chloro-4-fluorobenzyl)-5,6-dimethyl-1H-benzo[d]imidazol-2-yl)amino)ethan-1-ol] displayed an EC50 in test [1] of 5 to 30 µM. Also, the Ki at Son of Sevenless (SOS) is more than 5 µM.
Compound `Cc1cc2nc(N[C@H]3C[C@@H](N)C3)n(Cc3ccc(F)c(Cl)c3)c2cc1C` [Example 292, (1s,3s)-N^1-(1-(3-chloro-4-fluorobenzyl)-5,6-dimethyl-1H-benzo[d]imidazol-2-yl)cyclobutane-1,3-diamine] had an EC50 in test [1] of 1 to 5 µM. Further, at Son of Sevenless (SOS), the inhibition constant Ki is 1 to 5 µM.
`Fc1ccc(Cn2c(N3CCNCC3)nc3ccccc32)cc1` [Example 10, 1-(4-fluorobenzyl)-2-(piperazin-1-yl)-1H-benzo[d]imidazole trifluoroacetate] returned an EC50 in test [1] of 30 to 100 µM. Moreover, at Son of Sevenless (SOS), the Ki was more than 5 µM.
